Test results: patent US12539298B2, “Lobinaline N-oxides as positive allosteric modulators of the dopamine transporter with potential value in the treatment of substance abuse disorders” (University of Kentucky Research Foundation, priority 2019, dated 2026)

Tests used:
aqueous solubility = assay type: physicochemical
Text: Lobinaline (FIG. 1), was isolated from plant material and identified as the first-known binitrogenous plant alkaloid more than 80 years ago [27]. The applicants began to test its pharmacological activity after identifying Lobelia cardinalis as a novel source of nicAChR activity by high throughput screening in 2005 [26]. This plant species has no history of abuse, or traditional medicinal use of relevance to SUDs. […] These actions support lobinaline as a lead compound for the treatment of SUDs, particularly alcohol and nicotine use disorders. […] Lobinaline also appears to have appropriate pharmacokinetics and low toxicity. […] Conversely, this makes it a good test of the ability of target-directed evolution to generate novel inhibitors of the DAT in mutant plant cells.
Lobinaline and the “mono”-N-oxide were separated from plant and culture material by acid/base extraction, but the bi-N-oxide was derived from lobinaline using 3-chloroperbenzoic acid. All these compounds were separated by column chromatography with identity and purity confirmed by LC/MS.

nicAChRs = assay: [3H]DA release from superfused rat striatal slices; assay type: cell-based; conditions: 100 uM superfused before nicotine
Method: Effects of lobinaline and nicotine on [3H]DA release from superfused rat striatal slices (ref 5): rat brain striatal slices were incubated with [3H]DA for 30 min at […] before transfer to superfusion chambers. […] To evaluate the role of nicAChRs, striatal slices preloaded with [3H]-DA were pretreated with the nicAChR antagonist mecamylamine (10 μM) prior to superfusion of lobinaline (100 μM). […] With the data above from SHSY5Y cells, this supports a partial agonist action of lobinaline at nicAChRs. The N-oxides have not yet been tested in this system. Lobinaline has weak agonist effects on nicAChRs, but also has as yet unquantified antagonist effects (i.e. it acts as a partial agonist at nicAChRs).

CN1CCCC2C(c3ccccc3)C(C3=NCCCC3)C(c3ccccc3)CC21 (centres unmarked) [lobinaline]
aqueous solubility (aqueous solubility): very low aqueous solubility | fractional [3H]DA release induced by 10 uM nicotine after test substance (nicAChRs): completely prevented
